In patent publication US10738074B2, “Cyclic di-nucleotide compounds as STING agonists” (Merck Sharp & Dohme Corp., priority 2015, dated 2020):
Where two headings read alike, the source gives them in different places.

Key:
[1] = test system: THP1 cells; assay: IFN-β secretion in THP1 cell culture (5 h); type: cell-based, human; settings: Homo sapiens, THP-1, 5 h
Method: The ability of compounds to stimulate the secretion of interferon-beta from THP1 cells was measured using a human IFN-β AlphaLISA kit (Perkin Elmer, Cat. No. AL265F). The basic protocol is as follows:
A Labcyte Echo 550 acoustic dispenser was used to transfer 120 nL of compound dissolved in DMSO into the wells of an empty, sterile 384-well microplate, (Corning, Cat. No. 3712). THP1 cells (American Type Culture Collection, Cat. No. TIB202) previously frozen in Recovery Medium (Life Technologies, Cat. No. 12648-010) were thawed and immediately diluted 10-fold into 37° C. assay medium (RPMI 1640+L-Glutamine & phenol red, Life Technologies, Cat. No. 11875-085; 0.5% heat inactivated fetal bovine serum, Sigma Aldrich, Cat. No. F4135; 1 mM Sodium Pyruvate, Life Technologies, Cat. No. 11360-070; lx non-essential amino acids; Life Technologies, Cat. No. 11140-050). The cell viability and count was ascertained using a Beckman Coulter V-Cell XR cell counter. The cells suspension was centrifuged at 200×g for 5 min at RT. Cells were resuspended to a density of 0.8×10^6/mL in 37° C. assay medium. Subsequent liquid transfers were performed using either a Matrix electronic multichannel pipette or an Agilent Bravo Automated Liquid Handling Platform.
The assay was started by dispensing 40 μL of the previously prepared cell suspension into the wells of the plate containing compounds. After 5 h incubation at 37° C., 5% CO2 in a humidified atmosphere, the plate of cells and compounds was centrifuged at 200×g for 5 min at RT. From each well, 5 μL of supernatant was transferred into corresponding wells of a white 384-well plate (Perkin Elmer, Cat. No. 6005620). To these supernatant-containing wells was added 10 μL of 5× Anti-Analyte Acceptor beads (50 μg/mL of AlphaLISA HiBlock Buffer) and incubated for 30 min at RT while shaking on an orbital plate shaker. To each well was added 10 μL of 5× Biotinylated Antibody Anti-analyte (5 nM in AlphaLISA HiBlock Buffer) and incubated on an orbital plate shaker for 60 min at RT or overnight at 4° C. To each well was added 25 μL of 2× SA-Donor beads (80 μg/mL in AlphaLISA HiBlock Buffer) and incubated for 30-45 min at RT in the dark while shaking on an orbital plate shaker. The plate was then read on a Perkin Elmer Envision (λex=680 nm, λem=[…]). The percent effect of the AlphaLISA signal at each compound concentration was calculated based on 30 uM cGAMP positive controls and 0.3% DMSO negative controls. The plot of percent effect versus the log of compound concentration was fit with a 4-parameter concentration response equation to calculate EC50 values. The test compounds were tested at concentrations 30000, 10000, 3333, 1111, 370.4, 123.4, 41.2, 13.7, 4.6, and 1.5 nM with 0.3% residual DMSO.
Compounds of the disclosure were evaluated for IFN-β secretion in THP1 cell culture as described above. The following table tabulates the biological data for these compounds as percent activation relative to 2′3′-cGAMP at the 30 μM concentration.

[2] = molecular target: full-length HAQ STING (Homo sapiens (Human), UniProt Q86WV6, G230A/H232R/R293Q/R71H); assay: 3H-cGAMP filtration binding assay (HAQ STING); settings: competition with tritiated cGAMP, HAQ STING membrane
Sequence of full-length HAQ STING (Q86WV6 other isoform, or with tags, fused parts or gaps, stated change not applied): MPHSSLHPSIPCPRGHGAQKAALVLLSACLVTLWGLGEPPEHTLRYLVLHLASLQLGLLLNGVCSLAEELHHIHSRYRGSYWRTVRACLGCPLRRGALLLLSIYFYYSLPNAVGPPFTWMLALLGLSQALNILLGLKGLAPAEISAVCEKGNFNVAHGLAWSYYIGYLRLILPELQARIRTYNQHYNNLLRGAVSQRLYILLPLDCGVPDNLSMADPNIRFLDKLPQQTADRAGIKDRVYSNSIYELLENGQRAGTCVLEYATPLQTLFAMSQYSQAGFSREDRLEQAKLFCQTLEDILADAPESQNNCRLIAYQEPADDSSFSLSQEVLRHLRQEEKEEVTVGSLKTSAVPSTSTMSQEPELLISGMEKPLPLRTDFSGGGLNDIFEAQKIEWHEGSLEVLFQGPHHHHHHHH
Excerpt: (§1) The ability of compounds to bind STING is quantified by the ability to compete with tritiated cGAMP ligand for human STING receptor membrane using a radioactive filter-binding assay. The binding assay employs STING receptor obtained from Hi-Five cell membranes overexpressing full-length HAQ STING prepared in-house and tritiated cGAMP ligand also purified in-house.
as §1, with “their” for “the”, “Trichoplusia ni” for “Hi-Five”, “membranes (Tni; Expression Systems, cat #94-002F, www.exrpressionsystems.com)” for “membranes”
The basic HAQ STING filtration assay protocol is as follows:
Compound and membrane then preincubated for 60 min at RT to allow compound binding to equilibrate. Following equilibration, 8 nM of [^3H] c-GAMP ligand was prepared by diluting into assay buffer, and 50 uL of this working stock was then manually added to each well of the assay plate. […] The filter plates were then dried at 55° C. for 30 min using a pressurized VWR oven before 30 uL of Ultima GoldF scintillate was added to each well. Tritium levels for each reaction well were then measured using a PerkinElmer TopCount plate reader.
After normalization to controls, the percent activity for each compound concentration was calculated by measuring the amount of remaining radioactivity. The plot of percent activity versus the log of compound concentration was fit with a 4-parameter dose response equation to calculate EC50 values.

[3] = IFN-β secretion, THP1 cells, 5 h, 30 μM, read-out: % Effect at 30 μM relative to 2′3′-cGAMP

Row | EC50 [2] | SMILES | activation at 30 µM [1, 3] | activation at 30 µM ([1]; read-out: % Effect at 30 μM relative to 2′3′-cGAMP, IFN-β secretion, THP1 cells, 5 h, 30 μM)
1 | 18.2 nM | Nc1nc2c(ncn2[C@@H]2O[C@@H]3COP(=O)(O)O[C@@H]4[C@H](O)[C@@H](COP(=O)(O)O[C@@H]2C3)O[C@H]4n2cnc3c(N)ncnc32)c(=O)[nH]1 [Example 2, 2-amino-9-[(1R,6S,8R,9R,14R,16R,17R)-16-(6-amino-9H-purin-9-yl)-3,11,17-trihydroxy-3,11-dioxido-2,4,7,10,12,15-hexaoxa-3,11-diphosphatricyclo[12.2.1.1^6,9]octadec-8-yl]-1,9-dihydro-6H-purin-6-one] | 123% | 
2 | 3.7 nM | Nc1nc2c(ncn2[C@@H]2O[C@@H]3COP(=O)(O)O[C@@H]4C[C@@H](COP(=O)(O)O[C@@H]2[C@@H]3F)O[C@H]4n2cnc3c(N)ncnc32)c(=O)[nH]1 [Example 9, 2-amino-9-[(1R,6R,8R,9S,14S,16R,18R)-16-(6-amino-9H-purin-9-yl)-18-fluoro-3,11-dihydroxy-3,11-dioxido-2,4,7,10,12,15-hexaoxa-3,11-diphosphatricyclo[12.2.1.1^6,9]octadec-8-yl]-1,9-dihydro-6H-purin-6-one] | 115% | 
3 | 1.6 nM | Nc1nc2c(ncn2[C@@H]2O[C@@H]3COP(=O)(O)O[C@@H]4[C@H](N)[C@@H](COP(=O)(O)O[C@@H]2[C@@H]3O)O[C@H]4n2cnc3c(N)ncnc32)c(=O)[nH]1 [Example 33, 2-amino-9-[(1R,6R,8R,9R,14S,16R,17R,18R)-17-amino-16-(6-amino-9H-purin-9-yl)-3,11,18-trihydroxy-3,11-dioxido-2,4,7,10,12,15-hexaoxa-3,11-diphosphatricyclo[12.2.1.1^6,9]octadec-8-yl]-1,9-dihydro-6H-purin-6-one] | 140% | 
4 |  | [N-]=[N+]=N[C@H]1[C@H]2OP(O)(=S)OC[C@H]3O[C@@H](n4cnc5c(=O)[nH]c(N)nc54)[C@H](OP(O)(=S)OC[C@H]1O[C@H]2n1cnc2c(N)ncnc21)[C@@H]3F (single isomer, unassigned) [Example 18] |  | 118%
5 | 3.6 nM | Nc1nc2c(ncn2[C@@H]2O[C@@H]3COP(=O)(O)O[C@@H]4[C@H](O)[C@@H](COP(=O)(O)O[C@@H]2[C@@H]3F)O[C@H]4n2cnc3c(N)ncnc32)c(=O)[nH]1 [Example 3, 2-amino-9-[(1R,6R,8R,9S,14R,16R,17R,18R)-16-(6-amino-9H-purin-9-yl)-18-fluoro-3,11,17-trihydroxy-3,11-dioxido-2,4,7,10,12,15-hexaoxa-3,11-diphosphatricyclo[12.2.1.1^6,9]octadec-8-yl]-1,9-dihydro-6H-purin-6-one] | 150% | 
6 |  | Nc1nc2c(ncn2[C@@H]2O[C@@H]3COP(=O)(S)O[C@@H]4[C@H](O)[C@@H](COP(=O)(S)O[C@@H]2[C@@H]3O)O[C@H]4n2cnc3c(=O)[nH]c(N)nc32)c(=O)[nH]1 (single isomer, unassigned) [Example 25] | 89% | 
7 | < 1 nM | Nc1nc2c(ncn2[C@@H]2O[C@@H]3COP(=O)(O)O[C@@H]4[C@H](F)[C@@H](COP(=O)(O)O[C@@H]2[C@@H]3F)O[C@H]4n2cnc3c(N)ncnc32)c(=O)[nH]1 [Example 11, 2-amino-9-[(1S,6R,8R,9S,14R,16R,17R,18R)-16-(6-amino-9H-purin-9-yl)-17,18-difluoro-3,11-dihydroxy-3,11-dioxido-2,4,7,10,12,15-hexaoxa-3,11-diphosphatricyclo[12.2.1.1^6,9]octadec-8-yl]-1,9-dihydro-6H-purin-6-one] | 131% | 
8 | 1.9 nM | Nc1nc2c(ncn2[C@@H]2O[C@@H]3COP(=O)(O)O[C@@H]4[C@H](O)[C@@H](COP(=O)(O)O[C@@H]2[C@@H]3N)O[C@H]4n2cnc3c(N)ncnc32)c(=O)[nH]1 [Example 32, 2-amino-9-[(1R,6S,8R,9R,14R,16R,17R,18R)-18-amino-16-(6-amino-9H-purin-9-yl)-3,11,17-trihydroxy-3,11-dioxido-2,4,7,10,12,15-hexaoxa-3,11-diphosphatricyclo[12.2.1.1^6,9]octadec-8-yl]-1,9-dihydro-6H-purin-6-one] |  | 
9 | 102 nM | C[C@@H]1OP(=O)(O)O[C@@H]2[C@H](F)[C@@H](COP(=O)(O)O[C@@H]3[C@H](O)[C@@H]1O[C@H]3n1cnc3c(N)ncnc31)O[C@H]2n1cnc2c(=O)[nH]c(N)nc21 [Example 8, 2-amino-9-[(1R,6R,8R,9S,13S,14S,16R,17R,18R)-16-(6-amino-9H-purin-9-yl)-18-fluoro-3,11,17-trihydroxy-13-methyl-3,11-dioxido-2,4,7,10,12,15-hexaoxa-3,11-diphosphatricyclo[12.2.1.16,9]octadec-8-yl]-1,9-dihydro-6H-purin-6-one] | 36% | 
10 |  | Nc1nc2c(ncn2[C@@H]2O[C@@H]3COP(=O)(S)OC4C(O)[C@@H](COP(=O)(S)OC2[C@@H]3O)O[C@H]4n2cnc3c(N)ncnc32)c(=O)[nH]1 (stereo in doubt) [Example 15, 2-amino-9-[(1R,6R,8R,9R,14R,16R,17R,18R)-16-(6-amino-9H-purin-9-yl)-17,18-dihydroxy-3,11-dioxido-3,11-disulfanyl-2,4,7,10,12,15-hexaoxa-3,11-diphosphatricyclo[12.2.1.1^6,9]octadec-8-yl]-1,9-dihydro-6H-purin-6-one] | 132% | 
11 |  | Nc1nc2c(ncn2[C@@H]2O[C@@H]3COP(=O)(O)O[C@@H]4[C@H](F)[C@@H](COP(=O)(O)O[C@@H]2C3)O[C@H]4n2cnc3c(N)ncnc32)c(=O)[nH]1 [Example 10, 2-amino-9-[(1S,6S,8R,9R,14R,16R,17R)-16-(6-amino-9H-purin-9-yl)-17-fluoro-3,11-dihydroxy-3,11-dioxido-2,4,7,10,12,15-hexaoxa-3,11-diphosphatricyclo[12.2.1.1^6,9]octadec-8-yl]-1,9-dihydro-6H-purin-6-one] | 87% | 
12 |  | Nc1nc2c(ncn2[C@@H]2O[C@@H]3COP(=O)(S)O[C@@H]4[C@H](O)[C@@H](COP(=O)(S)O[C@@H]2[C@@H]3O)O[C@H]4n2cnc3c(N)ncnc32)c(=O)[nH]1 (stereo partly drawn) [Example 14, 2-amino-9-[(1R,6R,8R,9R,14R,16R,17R,18R)-16-(6-amino-9H-purin-9-yl)-17,18-dihydroxy-3,11-dioxido-3,11-disulfanyl-2,4,7,10,12,15-hexaoxa-3,11-diphosphatricyclo[12.2.1.1^6,9]octadec-8-yl]-1,9-dihydro-6H-purin-6-one] | 150% | 
